# Test system: 349418-098-R tumor spheroid viability
# Experiment: Anticancer human tumor 349418-098-R patient-derived lung adenocarcinoma cell line growth inhibition
# Conditions: spheroids with HUVEC and MSC; for IC50: curve of first compound; for viability, T/C: stronger effect = lower value
# Outline: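 Complex spheroids of malignant cells with endothelial cells and mesenchymal stem cells; agents alone or combined, from near clinical Cmax (or 10 microM if unknown) down in half-log steps, 0.25% DMSO final.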
# [1] = second compound 0.003 µM, first compound 0.0316 µM
# [2] = second compound 0.003 µM, first compound 0.1 µM
# [3] = second compound 0.003 µM, first compound 0.316 µM
# [4] = second compound 0.003 µM, first compound 1 µM
# [5] = second compound 0.003 µM, first compound 3.16 µM
# [6] = second compound 0.003 µM, first compound 10 µM
# [7] = second compound 0.00949 µM, first compound 0.0316 µM
# [8] = second compound 0.00949 µM, first compound 0.1 µM
# [9] = second compound 0.00949 µM, first compound 0.316 µM
# [10] = second compound 0.00949 µM, first compound 1 µM
# [11] = second compound 0.00949 µM, first compound 3.16 µM
# [12] = second compound 0.00949 µM, first compound 10 µM
# [13] = second compound 0.03 µM, first compound 0.0316 µM
# [14] = second compound 0.03 µM, first compound 0.1 µM
# [15] = second compound 0.03 µM, first compound 0.316 µM
# [16] = second compound 0.03 µM, first compound 1 µM
# [17] = second compound 0.03 µM, first compound 3.16 µM
# [18] = second compound 0.03 µM, first compound 10 µM
# [19] = second compound 0.0949 µM, first compound 0.0316 µM
# [20] = second compound 0.0949 µM, first compound 0.1 µM
# [21] = second compound 0.0949 µM, first compound 0.316 µM
# [22] = second compound 0.0949 µM, first compound 1 µM
# [23] = second compound 0.0949 µM, first compound 3.16 µM
# [24] = second compound 0.0949 µM, first compound 10 µM
# [25] = second compound 0.3 µM, first compound 0.0316 µM
# [26] = second compound 0.3 µM, first compound 0.1 µM
# [27] = second compound 0.3 µM, first compound 0.316 µM
# [28] = second compound 0.3 µM, first compound 1 µM
# [29] = second compound 0.3 µM, first compound 3.16 µM
# [30] = second compound 0.3 µM, first compound 10 µM
# 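Note: spheroids exposed to compound for 7 days before measurement.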
# 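Throughout, for viability, T/C: percent of vehicle control viability with 100% = DMSO-treated spheroids.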
smiles,measurement,setting,value
CC(C)n1c(=O)n(C)c2cnc3cc(F)c(-c4ccc(OCCCN5CCCCC5)nc4)cc3c21 + Cn1nnc2c(C(N)=O)ncn2c1=O,IC50,second compound 1 µM,9.75 µM
same,IC50,second compound 3.16 µM,9 µM
same,IC50,second compound 10 µM,9.25 µM
same,IC50,second compound 31.6 µM,8.89 µM
same,IC50,second compound 100 µM,8.48 µM
same,"viability, T/C","second compound 1 µM, first compound 0.0316 µM",104%
same,"viability, T/C","second compound 1 µM, first compound 0.1 µM",99.5%
same,"viability, T/C","second compound 1 µM, first compound 0.316 µM",101%
same,"viability, T/C","second compound 1 µM, first compound 1 µM",101%
same,"viability, T/C","second compound 1 µM, first compound 3.16 µM",103%
same,"viability, T/C","second compound 1 µM, first compound 10 µM",48.8%
same,"viability, T/C","second compound 3.16 µM, first compound 0.0316 µM",102%
same,"viability, T/C","second compound 3.16 µM, first compound 0.1 µM",105%
same,"viability, T/C","second compound 3.16 µM, first compound 0.316 µM",103%
same,"viability, T/C","second compound 3.16 µM, first compound 1 µM",103%
same,"viability, T/C","second compound 3.16 µM, first compound 3.16 µM",102%
same,"viability, T/C","second compound 3.16 µM, first compound 10 µM",44.7%
same,"viability, T/C","second compound 10 µM, first compound 0.0316 µM",98.6%
same,"viability, T/C","second compound 10 µM, first compound 0.1 µM",103%
same,"viability, T/C","second compound 10 µM, first compound 0.316 µM",99.6%
same,"viability, T/C","second compound 10 µM, first compound 1 µM",103%
same,"viability, T/C","second compound 10 µM, first compound 3.16 µM",104%
same,"viability, T/C","second compound 10 µM, first compound 10 µM",46.3%
same,"viability, T/C","second compound 31.6 µM, first compound 0.0316 µM",102%
same,"viability, T/C","second compound 31.6 µM, first compound 0.1 µM",106%
same,"viability, T/C","second compound 31.6 µM, first compound 0.316 µM",98.4%
same,"viability, T/C","second compound 31.6 µM, first compound 1 µM",105%
same,"viability, T/C","second compound 31.6 µM, first compound 3.16 µM",105%
same,"viability, T/C","second compound 31.6 µM, first compound 10 µM",43.9%
same,"viability, T/C","second compound 100 µM, first compound 0.0316 µM",103%
same,"viability, T/C","second compound 100 µM, first compound 0.1 µM",107%
same,"viability, T/C","second compound 100 µM, first compound 0.316 µM",105%
same,"viability, T/C","second compound 100 µM, first compound 1 µM",102%
same,"viability, T/C","second compound 100 µM, first compound 3.16 µM",102%
same,"viability, T/C","second compound 100 µM, first compound 10 µM",41.3%
[2H]c1nc(C)nc([2H])c1-c1cc(NC[C@@H](C)c2cccc3c(C(=O)NC)ccnc23)ncn1 + CC[C@@]1(O)C(=O)OCc2c1cc1n(c2=O)Cc2cc3c(CN(C)C)c(O)ccc3nc2-1,IC50,second compound 0.003 µM,> 10 µM
same,IC50,second compound 0.00949 µM,> 10 µM
same,IC50,second compound 0.03 µM,7.51 µM
same,IC50,second compound 0.0949 µM,< 0.0316 µM
same,IC50,second compound 0.3 µM,< 0.0316 µM
same,"viability, T/C",[1],96.3%
same,"viability, T/C",[2],103%
same,"viability, T/C",[3],97.9%
same,"viability, T/C",[4],105%
same,"viability, T/C",[5],102%
same,"viability, T/C",[6],102%
same,"viability, T/C",[7],93.7%
same,"viability, T/C",[8],101%
same,"viability, T/C",[9],98.5%
same,"viability, T/C",[10],100%
same,"viability, T/C",[11],102%
same,"viability, T/C",[12],97.2%
same,"viability, T/C",[13],78.9%
same,"viability, T/C",[14],67.9%
same,"viability, T/C",[15],75.5%
same,"viability, T/C",[16],71.1%
same,"viability, T/C",[17],53.9%
same,"viability, T/C",[18],48.7%
same,"viability, T/C",[19],13.9%
same,"viability, T/C",[20],15.4%
same,"viability, T/C",[21],11.2%
same,"viability, T/C",[22],13.1%
same,"viability, T/C",[23],7.36%
same,"viability, T/C",[24],6.4%
same,"viability, T/C",[25],4.73%
same,"viability, T/C",[26],5.56%
same,"viability, T/C",[27],4.91%
same,"viability, T/C",[28],4.06%
same,"viability, T/C",[29],4.8%
same,"viability, T/C",[30],3.56%
COc1cc(C)[nH]c(=O)c1CN1CCc2c(Cl)cc(C(OC)C3COC3)c(Cl)c2C1=O (stereo not given) + CC[C@@]1(O)C(=O)OCc2c1cc1n(c2=O)Cc2cc3c(CN(C)C)c(O)ccc3nc2-1,IC50,second compound 0.003 µM,> 10 µM
same,IC50,second compound 0.00949 µM,> 10 µM
same,IC50,second compound 0.03 µM,5.48 µM
same,IC50,second compound 0.0949 µM,< 0.0316 µM
same,IC50,second compound 0.3 µM,< 0.0316 µM
same,"viability, T/C",[1],108%
same,"viability, T/C",[2],123%
same,"viability, T/C",[3],104%
same,"viability, T/C",[4],109%
same,"viability, T/C",[5],109%
same,"viability, T/C",[6],114%
same,"viability, T/C",[7],104%
same,"viability, T/C",[8],121%
same,"viability, T/C",[9],100%
same,"viability, T/C",[10],113%
same,"viability, T/C",[11],97.1%
same,"viability, T/C",[12],94.8%
same,"viability, T/C",[13],89.7%
same,"viability, T/C",[14],73.8%
same,"viability, T/C",[15],65.6%
same,"viability, T/C",[16],71.8%
same,"viability, T/C",[17],60.1%
same,"viability, T/C",[18],40.5%
same,"viability, T/C",[19],19.4%
same,"viability, T/C",[20],17.1%
same,"viability, T/C",[21],9.77%
same,"viability, T/C",[22],16%
same,"viability, T/C",[23],13.4%
same,"viability, T/C",[24],8.01%
same,"viability, T/C",[25],5.42%
same,"viability, T/C",[26],4.95%
same,"viability, T/C",[27],4.96%
same,"viability, T/C",[28],3.5%
same,"viability, T/C",[29],4.11%
same,"viability, T/C",[30],5.21%

# Source: PubChem BioAssay AID1845197 (Molecular Pharmacology Branch, DTP, NCI, 2023)
